Assay results reported in paper PMC7739374 (ACS chemical biology, 2020).
Where a SMILES comes first, the peptide text is derived from it. [ ]: non-standard residue; d: D form. β3hI = CC[C@H](C)[C@H](N)CC(=O)O; β3hE = N[C@@H](CCC(=O)O)CC(=O)O; β3hA = C[C@H](N)CC(=O)O

Legend:
[1] = Tryptic digestion, HPLC-based proteolytic stability assay; format: in vitro ADME
trypsin = test: as above; format: in vitro ADME
proteinase K = format: in vitro ADME
[2] = test system: H358 (K-Ras G12C) lung cancer cells; test: MTT cell viability; format: cell-based; conditions: 72 hours
recombinant H-Ras = conditions: within range of full-length Sos; cited from earlier work
[3] = test system: Ras activation and ERK signaling; conditions: cited from earlier work

SMILES	half-life ([1]; isolated enzyme trypsin) [h]	fold increase in half-life, tryptic digestion (trypsin)	fold increase in half-life with proteinase K (proteinase K) [fold]	effect on cell viability, H358 [2]	half-life ([1]; trypsin) [h]	affinity for recombinant H-Ras (recombinant H-Ras)	modulation of Ras activation and ERK signaling [3]
CC[C@H](C)[C@@H](CC(=O)N[C@@H](Cc1ccc(O)cc1)C(=O)N[C@@H](CCCNC(=N)N)C(=O)N[C@@H](CC(C)C)C(=O)N[C@@H](CCC(=O)O)CC(=O)N[C@@H](CC(C)C)C(=O)N[C@@H](CC(C)C)C(=O)N[C@@H](CCCCN)C(=O)N[C@@H](C)CC(=O)N[C@@H](CCC(=O)O)C(=O)N[C@@H](CCC(=O)O)C(=O)N[C@@H](C)C(=O)N[C@@H](CC(N)=O)C(N)=O)NC(=O)CN1C/C=C/CCCC(=O)N[C@@H](Cc2ccccc2)C(=O)N[C@@H](CCC(=O)O)C1=O [α3βHBSSOS]	17.6	~ 6 fold	360	impacts viability of H358 cells at higher concentrations			
CC[C@H](C)[C@H](NC(=O)CN1C/C=C/CCC(=O)N[C@@H](Cc2ccccc2)C(=O)N[C@@H](CCC(=O)O)C1=O)C(=O)N[C@@H](Cc1ccc(O)cc1)C(=O)N[C@@H](CCCNC(=N)N)C(=O)N[C@@H](CC(C)C)C(=O)N[C@@H](CCC(=O)O)C(=O)N[C@@H](CC(C)C)C(=O)N[C@@H](CC(C)C)C(=O)N[C@@H](CCCCN)C(=O)N[C@@H](C)C(=O)N[C@@H](CCC(=O)O)C(=O)N[C@@H](CCC(=O)O)C(=O)N[C@@H](C)C(=O)N[C@@H](CC(N)=O)C(N)=O [HBSSOS]					3.1	micromolar affinity	concentration-dependent manner
CC[C@H](C)[C@@H](CC(=O)N[C@@H](Cc1ccc(O)cc1)C(=O)N[C@@H](CCCNC(=N)N)C(=O)N[C@@H](CC(C)C)C(=O)N[C@@H](CCC(=O)O)CC(=O)N[C@@H](CC(C)C)C(=O)N[C@@H](CC(C)C)C(=O)N[C@@H](CCCCN)C(=O)N[C@@H](C)CC(=O)N[C@@H](CCC(=O)O)C(=O)N[C@@H](CCC(=O)O)C(=O)N[C@@H](C)C(=O)N[C@@H](CC(N)=O)C(N)=O)NC(=O)CNC(=O)[C@H](CCC(=O)O)NC(=O)[C@H](Cc1ccccc1)NC(C)=O [α3βUNCSOS] (Ac-FEG[β3hI]YRL[β3hE]LLK[β3hA]EEAN-NH2; N-terminus and C-terminus assumed)	13.6	8.5 fold					
CC[C@H](C)[C@H](NC(=O)CNC(=O)[C@H](CCC(=O)O)NC(=O)[C@H](Cc1ccccc1)NC(C)=O)C(=O)N[C@@H](Cc1ccc(O)cc1)C(=O)N[C@@H](CCCNC(=N)N)C(=O)N[C@@H](CC(C)C)C(=O)N[C@@H](CCC(=O)O)C(=O)N[C@@H](CC(C)C)C(=O)N[C@@H](CC(C)C)C(=O)N[C@@H](CCCCN)C(=O)N[C@@H](C)C(=O)N[C@@H](CCC(=O)O)C(=O)N[C@@H](CCC(=O)O)C(=O)N[C@@H](C)C(=O)N[C@@H](CC(N)=O)C(N)=O [αUNCSOS] (Ac-FEGIYRLELLKAEEAN-NH2; N-terminus and C-terminus assumed)					1.6		
